According to patent US10682319B2, “Necrosis inhibitors” (National Institute of Biological Sciences, Beijing, priority 2014, dated 2020):

Each compound was assayed on HT-29 cells (assay: Necrosis assay (TNF-α/Smac mimetic/z-VAD induced necrosis, cell viability by ATP level)). Details: HT-29, TNF-α + Smac mimetic + z-VAD, 24 hrs, ATP level; values given as ranges in nM; read-out: EC50 (inhibition of necrosis in HT-29 cells).
Assay type: cell-based
Protocol: HT-29 cells were cultured in McCoy's 5 A culture medium (Invitrogen). On day one, HT-29 cells were plated in 96-well assay plates at density of 2,500-3,500 cells per well. On day two, necrosis were induced by adding 20 ng/ml TNF-α (T), 100 nM Smac mimetic (S), and […] z-VAD (Z). At the same time, […] compound from a chemical library of ˜200,000 compounds was delivered into each well. After 24 hrs treatment, cell viability was determined by measuring ATP level using the CellTiter-Glo Luminescent Cell Viability Assay kit. A CellTiter-Glo Assay (Promega) was performed according to the manufacturer's instructions Luminescence was recorded with a PerkinElmer EnSpire Multimode Plate Reader. Survived cells were normalized to those cells treated with DMSO. Nec-1 was used as a positive control for screening necrosis inhibitors. Data are represented as mean±standard deviation of duplicates
Dose-dependent inhibition of necrosis by the compounds in HT-29 cells were determined by measuring ATP levels as described above.

SMILES | EC50
CCC(C)(C)C(=O)N(Cc1ccccc1)OC [Compound S4, N-benzyl-N-methoxy-2,2-dimethylbutanamide] | 1 to 1000 nM
CCC(C)(C)C(=O)N(O)Cc1ccc(F)c(F)c1 [Compound 95, N-(3,4-difluorobenzyl)-N-hydroxy-2,2-dimethylbutanamide] | 1 to 1000 nM
CN(Cc1cc(F)cc(F)c1F)C(=O)C1(C)CCCCC1 [Compound 65, N,1-dimethyl-N-(2,3,5-trifluorobenzyl)cyclohexanecarboxamide] | 1 to 1000 nM
CC(F)(F)C(C)(C)C(=O)N(O)Cc1ccccc1 [Compound S6, N-benzyl-3,3-difluoro-N-hydroxy-2,2-dimethylbutanamide] | 1 to 1000 nM
CCC(C)(C)C(=O)N(C)Cc1ccc(OC)cc1F [Compound 28, N-(2-fluoro-4-methoxybenzyl)-N,2,2-trimethylbutanamide] | 1 to 1000 nM
CC1CCCC(C)N1C(=O)N(C)Cc1cc(F)cc(F)c1F (stereo not shown) [Compound 121, N,2,6-trimethyl-N-(2,3,5-trifluorobenzyl)piperidine-1-carboxamide] | 1 to 1000 nM
CN(Cc1cc(F)cc(F)c1F)C(=O)C(C)(C)C [Compound S2, N-methyl-N-(2,3,5-trifluorobenzyl)pivalamide] | 1 to 1000 nM
CCC(C)(C)C(=O)NCc1cc(F)cc(F)c1F [Compound 70, 2,2-dimethyl-N-(2,3,5-trifluorobenzyl)butanamide] | 1 to 1000 nM
CCC(C)(C)C(=O)N(C)Cc1ccc(F)c(F)c1 [Compound 91, N-(3,4-difluorobenzyl)-N,2,2-trimethylbutanamide] | 1 to 1000 nM
CCC(C)(C)C(=O)N(C)Cc1cc(F)ccc1F [Compound 25, N-(2,5-difluorobenzyl)-N,2,2-trimethylbutanamide] | 1 to 1000 nM
CCC(C)(C)C(=O)N(C)Cc1ccco1 [Compound 43, N-(furan-2-ylmethyl)-N,2,2-trimethylbutanamide] | 1 to 1000 nM
CCC(C)(C)C(=O)N(C)Cc1ccc(F)cc1F [Compound 24, N-(2,4-difluorobenzyl)-N,2,2-trimethylbutanamide] | 1 to 1000 nM

Same assay, conditions: Homo sapiens, HT-29, 24 h, HT-29, TNF-α + Smac mimetic + z-VAD, 24 hrs, ATP level; values given as ranges in uM; read-out: EC50 (inhibition of necrosis in HT-29 cells)

SMILES | EC50
CON(Cc1cc(F)c(F)cc1F)C(=O)C(C)(C)C(C)(F)F [Compound S18] | 1000 to 100000 nM
CCC(C)(C)C(=O)N(C)Cc1cccc(OC)c1 [Compound 20, N-(3-methoxybenzyl)-N,2,2-trimethylbutanamide] | 1000 to 100000 nM
CC(F)(F)C(C)(C)C(=O)N(O)Cc1cc(F)c(F)c(F)c1 [Compound S13] | 1000 to 100000 nM
CCC(C)(C)C(=O)N(O)CC1=CCCC1 [Compound 140] | 1000 to 100000 nM
CCC(C)(C)C(=O)NCc1ccccc1Br [Compound 3, N-(2-bromobenzyl)-2,2-dimethylbutanamide] | 1000 to 10000 nM
CCC1(C(=O)N(C)Cc2cc(F)c(F)c(F)c2)CCC1 [Compound 88, 1-ethyl-N-methyl-N-(3,4,5-trifluorobenzyl)cyclobutanecarboxamide] | 1000 to 100000 nM
CN(Cc1cc(F)cc(F)c1F)C(=O)C1(C)CC1 [Compound 80, N,1-dimethyl-N-(2,3,5-trifluorobenzyl)cyclopropanecarboxamide] | 1000 to 100000 nM
CCC(C)(C)C(=O)N(C)[C@@H](CO)c1cc(F)cc(F)c1F [Compound 149] | 1000 to 100000 nM
CCC(C)(C)C(=O)N(C)Cc1cnc2ccccc2c1 [Compound 47, N,2,2-trimethyl-N-(quinolin-3-ylmethyl)butanamide] | 1000 to 100000 nM
CCC(C)(C)C(=O)N[C@@H](C(=O)NCCc1ccccc1)c1ccccc1 [Compound 125, (R)-2,2-dimethyl-N-(2-oxo-2-(phenethylamino)-1-phenylethyl)butanamide] | 1000 to 100000 nM
CCC(C)(C)C(=O)N(Cc1cc(F)c(F)cc1F)OC [Compound 133] | 1000 to 100000 nM
CON(Cc1ccc(F)c(F)c1)C(=O)C(C)(C)C(C)(F)F [Compound S17] | 1000 to 100000 nM
CCC(C)(C)C(=O)N(O)Cc1sc(C)cc1C [Compound 138] | 1000 to 100000 nM
CC(C)NC(=O)N(C)Cc1ccccc1F [Compound 114, 1-(2-fluorobenzyl)-3-isopropyl-1-methylurea] | 1000 to 100000 nM
CCC(C)(C)C(=O)N(C)Cc1cccc(Br)c1 [Compound 19, N-(3-bromobenzyl)-N,2,2-trimethylbutanamide] | 1000 to 10000 nM
CON(Cc1cc(F)c(F)c(F)c1)C(=O)C(C)(C)C(C)(F)F [Compound S19] | 1000 to 100000 nM
CCC1CCCCN1C(=O)N(C)Cc1cc(F)cc(F)c1F (stereo not shown) [Compound 116, 2-ethyl-N-methyl-N-(2,3,5-trifluorobenzyl)piperidine-1-carboxamide] | 1000 to 100000 nM
CCC(C)(C)C(=O)N(C)Cc1cccc(C)c1C [Compound 31, N-(2,3-dimethylbenzyl)-N,2,2-trimethylbutanamide] | 1000 to 100000 nM
CCC1(C(=O)N(C)Cc2cc(F)c(F)c(F)c2)CCCC1 [Compound 89, 1-ethyl-N-methyl-N-(3,4,5-trifluorobenzyl)cyclopentanecarboxamide] | 1000 to 10000 nM
CCC(C)(C)C(=O)N(C)Cc1cccc(O)c1 [Compound 21, N-(3-hydroxybenzyl)-N,2,2-trimethylbutanamide] | 1000 to 100000 nM
COCC(C)(C)C(=O)N(C)Cc1cc(F)c(F)c(F)c1 [Compound 71, 3-methoxy-N,2,2-trimethyl-N-(3,4,5-trifluorobenzyl)propanamide] | 1000 to 100000 nM
CCC(C)(C)C(=O)N[C@@H](C(=O)N(C)C)c1ccccc1 [Compound 123, (R)—N-(2-(dimethylamino)-2-oxo-1-phenylethyl)-2,2-dimethylbutanamide] | 1000 to 100000 nM
CCNC(=O)C[C@H](NC(=O)C(C)(C)CC)c1ccccc1 [Compound 103, (S)—N-(3-(ethylamino)-3-oxo-1-phenylpropyl)-2,2-dimethylbutanamide] | 1000 to 100000 nM

SMILES | EC50
CN(Cc1cc(F)c(F)c(F)c1)C(=O)C1CCCC1 [Compound 85, N-methyl-N-(3,4,5-trifluorobenzyl)cyclopentanecarboxamide] | 1000 to 100000 nM
CCC(C)(C)C(=O)N[C@@H](CC(=O)NCCOc1ccccc1)c1ccccc1 [Compound 126, (S)-2,2-dimethyl-N-(3-oxo-3-((2-phenoxyethyl)amino)-1-phenylpropyl)butanamide] | 1000 to 100000 nM
CCC(C)(C)C(=O)N(O)Cc1cccn1C [Compound 143] | 1000 to 100000 nM
CCC(C)(C)C(=O)N(Cc1ccccc1)OC [Compound 151] | 1000 to 100000 nM
C=CC(C)(C)C(=O)N(C)Cc1ccccc1F [Compound 147] | 1000 to 100000 nM
CCC(C)(C)C(=O)NC(C)c1ccccc1 (stereo not shown) [Compound 52, 2,2-dimethyl-N-(1-phenylethyl)butanamide] | 1000 to 100000 nM
CN(Cc1cc(F)cc(F)c1F)C(=O)C1(c2ccccc2)CC1 [Compound 82, N-methyl-1-phenyl-N-(2,3,5-trifluorobenzyl)cyclopropanecarboxamide] | 1000 to 100000 nM
CC1CCCCN1C(=O)N(C)Cc1cc(F)cc(F)c1F (stereo not shown) [Compound 117, N,2-dimethyl-N-(2,3,5-trifluorobenzyl)piperidine-1-carboxamide] | 1000 to 10000 nM
CCC(C)(C)C(=O)N(C)Cc1ccc(OC)nc1 [Compound 38, N-((6-methoxypyridin-3-yl)methyl)-N,2,2-trimethylbutanamide] | 1000 to 100000 nM
CCC(C)(C)C(=O)N(Cc1cc(F)cc(F)c1F)OC [Compound 135] | 1000 to 100000 nM
CCC(C)(C)C(=O)N(C)Cc1cccnc1OC [Compound 37, N-((2-methoxypyridin-3-yl)methyl)-N,2,2-trimethylbutanamide] | 1000 to 100000 nM
CCC(C)(C)C(=O)N(C)Cc1c(F)cc(F)cc1F [Compound 48, N,2,2-trimethyl-N-(2,4,6-trifluorobenzyl)butanamide] | 1000 to 10000 nM
CN(Cc1ccccc1F)C(=O)CC(C)(C)C [Compound 59, N-(2-fluorobenzyl)-N,3,3-trimethylbutanamide] | 1000 to 10000 nM
CCC(C)(C)C(=O)N(C)Cc1cccc(OC(F)(F)F)c1F [Compound 33, N-(2-fluoro-3-(trifluoromethoxy)benzyl)-N,2,2-trimethylbutanamide] | 1000 to 100000 nM
CCC(C)(C)C(=O)N[C@@H](C(=O)NC)c1ccccc1 [Compound 122, (R)-2,2-dimethyl-N-(2-(methylamino)-2-oxo-1-phenylethyl)butanamide] | 1000 to 100000 nM
CN(Cc1cc(F)c(F)c(F)c1)C(=O)C(C)(C)C [Compound 69, N-methyl-N-(3,4,5-trifluorobenzyl)pivalamide] | 1000 to 10000 nM
CCC(C)(C)C(=O)N(O)CC1CCCCC1 [Compound 141] | 1000 to 100000 nM
CC(F)(F)C(C)(C)C(=O)N(O)Cc1cc(F)c(F)cc1F [Compound S12] | 1000 to 100000 nM
CN(Cc1cc(F)c(F)c(F)c1)C(=O)C(C)(C)CO [Compound 66, 3-hydroxy-N,2,2-trimethyl-N-(3,4,5-trifluorobenzyl)propanamide] | 1000 to 100000 nM
CCC(C)(C)C(=O)N(C)C(CO)c1ccccc1 (stereo not shown) [Compound 111, N-(2-hydroxy-1-phenylethyl)-N,2,2-trimethylbutanamide] | 1000 to 100000 nM
CCC(C)(C)C(=O)N(Cc1ccc(F)cc1)OC [Compound 130] | 1000 to 100000 nM
C#CCN(Cc1ccccc1F)C(=O)C(C)(C)CC [Compound 11, N-(2-fluorobenzyl)-2,2-dimethyl-N-(prop-2-yn-1-yl)butanamide] | 1000 to 10000 nM
CCC(C)(C)C(=O)NCc1ccc(F)c(F)c1 [Compound 8, N-(3,4-difluorobenzyl)-2,2-dimethylbutanamide] | 1000 to 10000 nM
